Earlier results in patent US12564579B2, “Topical formulations of (1S)-1-phenyl-2-pyridin-2-ylethanamine” (priority 2020, dated 2026).

Details: clinical trials

In the case of N[C@@H](Cc1ccccn1)c1ccccc1 [Lanicemine, (1S)-1-phenyl-2-pyridin-2-ylethanamine], the psychotomimetic side effects is given as “little or no psychotomimetic side effects” and the study endpoints (development terminated by sponsor) is given as “did not meet study endpoints”.
